Results as given in ChEMBL document CHEMBL3124787, “Discovery of novel bis-oxazolidinone compounds as potential potent and selective antitubercular agents” (Bioorg Med Chem Lett, 2014).
Values after ≈ are worked out from the molar mass of the structure shown.

Key:
[1] = Lipophilicity, log P of the compound by HPLC analysis; type: physicochemical
Staphylococcus aureus [2] = assay: Antibacterial activity against methicillin-resistant Staphylococcus aureus ATCC 33591 assessed as growth inhibition after 18 hrs by broth microdilution method; type: functional; conditions: ATCC 33591, 18 h
Escherichia coli = assay: Antibacterial activity against Escherichia coli ATCC 25922 assessed as growth inhibition after 18 hrs by broth microdilution method; type: functional; conditions: ATCC 25922, 18 h
Staphylococcus aureus [3] = assay: Antibacterial activity against methicillin-susceptible Staphylococcus aureus CMCC 26003 assessed as growth inhibition after 18 hrs by broth microdilution method; type: functional; conditions: CMCC 26003, 18 h
[4] = test system: Mycolicibacterium smegmatis; assay: Antibacterial activity against Mycobacterium smegmatis assessed as growth inhibition after 18 hrs by broth microdilution method; type: functional
Staphylococcus aureus [5] = assay: Antibacterial activity against methicillin-resistant Staphylococcus aureus ATCC 43300 assessed as growth inhibition after 18 hrs by broth microdilution method; type: functional; conditions: ATCC 43300, 18 h
[6] = test system: Mycobacterium tuberculosis; assay: Antitubercular activity against Mycobacterium tuberculosis H37RV ATCC 27294 assessed as growth inhibition after 3 to 11 days by microdilution method; type: functional
Pseudomonas aeruginosa = assay: Antibacterial activity against Pseudomonas aeruginosa ATCC 27853 assessed as growth inhibition after 18 hrs by broth microdilution method; type: functional; conditions: ATCC 27853, 18 h
Staphylococcus aureus [7] = assay: Antibacterial activity against methicillin-susceptible Staphylococcus aureus ATCC 25923 assessed as growth inhibition after 18 hrs by broth microdilution method; type: functional; conditions: ATCC 25923, 18 h
[8] = Aqueous solubility of the compound by HPLC analysis; type: physicochemical
Staphylococcus aureus [9] = assay: Antibacterial activity against methicillin-susceptible Staphylococcus aureus ATCC 29213 assessed as growth inhibition after 18 hrs by broth microdilution method; type: functional; conditions: ATCC 29213, 18 h
Staphylococcus aureus [10] = assay: Antibacterial activity against methicillin-susceptible Staphylococcus aureus ATCC 6538 assessed as growth inhibition after 18 hrs by broth microdilution method; type: functional; conditions: ATCC 6538, 18 h

## CC(=O)NC[C@H]1CN(c2ccc(OC[C@@H](O)CNc3ccccc3)c(F)c2)C(=O)O1
[1]
  logP: 1.42
Staphylococcus aureus [2]
  MIC99: 8 µg/mL (≈ 19.2 µM)
Escherichia coli
  MIC99: > 32 µg/mL
Staphylococcus aureus [3]
  MIC99: 4 µg/mL (≈ 9.58 µM)
[4]
  MIC99: > 64 µg/mL
Staphylococcus aureus [5]
  MIC99: 4 µg/mL (≈ 9.58 µM)
[6]
  MIC: 8 µg/mL (≈ 19.2 µM)
Pseudomonas aeruginosa
  MIC99: > 32 µg/mL
Staphylococcus aureus [7]
  MIC99: 8 µg/mL (≈ 19.2 µM)
[8]
  solubility: 124 µM (≈ 51.8 µg/mL)
Staphylococcus aureus [9]
  MIC99: 8 µg/mL (≈ 19.2 µM)
Staphylococcus aureus [10]
  MIC99: 4 µg/mL (≈ 9.58 µM)

## CC(=O)NC[C@H]1CN(c2ccc(OC[C@H](O)CNc3ccccc3)c(F)c2)C(=O)O1
[1]
  logP: 0.59
Staphylococcus aureus [2]
  MIC99: 8 µg/mL (≈ 19.2 µM)
Escherichia coli
  MIC99: > 32 µg/mL
Staphylococcus aureus [3]
  MIC99: 8 µg/mL (≈ 19.2 µM)
[4]
  MIC99: > 64 µg/mL
Staphylococcus aureus [5]
  MIC99: 8 µg/mL (≈ 19.2 µM)
Pseudomonas aeruginosa
  MIC99: > 32 µg/mL
Staphylococcus aureus [7]
  MIC99: 8 µg/mL (≈ 19.2 µM)
[8]
  solubility: 296 µM (≈ 124 µg/mL)
Staphylococcus aureus [9]
  MIC99: 8 µg/mL (≈ 19.2 µM)
Staphylococcus aureus [10]
  MIC99: 4 µg/mL (≈ 9.58 µM)

## CC(=O)NC[C@H]1CN(c2ccc(OC[C@@H](O)CNc3ccc(C#N)cc3)c(F)c2)C(=O)O1
[1]
  logP: 2.12
Staphylococcus aureus [2]
  MIC99: 16 µg/mL (≈ 36.2 µM)
Escherichia coli
  MIC99: > 32 µg/mL
Staphylococcus aureus [3]
  MIC99: 8 µg/mL (≈ 18.1 µM)
[4]
  MIC99: 16 µg/mL (≈ 36.2 µM)
Staphylococcus aureus [5]
  MIC99: 8 µg/mL (≈ 18.1 µM)
Pseudomonas aeruginosa
  MIC99: > 32 µg/mL
Staphylococcus aureus [7]
  MIC99: 16 µg/mL (≈ 36.2 µM)
[8]
  solubility: 47 µM (≈ 20.8 µg/mL)
Staphylococcus aureus [9]
  MIC99: 16 µg/mL (≈ 36.2 µM)
Staphylococcus aureus [10]
  MIC99: 4 µg/mL (≈ 9.04 µM)

## CC(=O)NC[C@H]1CN(c2ccc(OC[C@H](O)CNc3ccc(C#N)cc3)c(F)c2)C(=O)O1
[1]
  logP: 1.29
Staphylococcus aureus [2]
  MIC99: 16 µg/mL (≈ 36.2 µM)
Escherichia coli
  MIC99: > 32 µg/mL
Staphylococcus aureus [3]
  MIC99: 8 µg/mL (≈ 18.1 µM)
[4]
  MIC99: 32 µg/mL (≈ 72.3 µM)
Staphylococcus aureus [5]
  MIC99: 16 µg/mL (≈ 36.2 µM)
Pseudomonas aeruginosa
  MIC99: > 32 µg/mL
Staphylococcus aureus [7]
  MIC99: 16 µg/mL (≈ 36.2 µM)
[8]
  solubility: 69 µM (≈ 30.5 µg/mL)
Staphylococcus aureus [9]
  MIC99: 16 µg/mL (≈ 36.2 µM)
Staphylococcus aureus [10]
  MIC99: 8 µg/mL (≈ 18.1 µM)

## CC(=O)NC[C@H]1CN(c2ccc(OC[C@@H](O)CNc3cc(C(F)(F)F)cc(C(F)(F)F)c3)c(F)c2)C(=O)O1
[1]
  logP: 3.1
Staphylococcus aureus [2]
  MIC99: 32 µg/mL (≈ 57.8 µM)
Escherichia coli
  MIC99: > 32 µg/mL
Staphylococcus aureus [3]
  MIC99: 16 µg/mL (≈ 28.9 µM)
[4]
  MIC99: 16 µg/mL (≈ 28.9 µM)
Staphylococcus aureus [5]
  MIC99: 16 µg/mL (≈ 28.9 µM)
Pseudomonas aeruginosa
  MIC99: > 32 µg/mL
Staphylococcus aureus [7]
  MIC99: 16 µg/mL (≈ 28.9 µM)
Staphylococcus aureus [9]
  MIC99: 16 µg/mL (≈ 28.9 µM)
Staphylococcus aureus [10]
  MIC99: 8 µg/mL (≈ 14.5 µM)

## CC(=O)NC[C@H]1CN(c2ccc(OC[C@H](O)CNc3cc(C(F)(F)F)cc(C(F)(F)F)c3)c(F)c2)C(=O)O1
[1]
  logP: 3.01
Staphylococcus aureus [2]
  MIC99: > 32 µg/mL
Escherichia coli
  MIC99: > 32 µg/mL
Staphylococcus aureus [3]
  MIC99: > 32 µg/mL
[4]
  MIC99: > 64 µg/mL
Staphylococcus aureus [5]
  MIC99: > 32 µg/mL
Pseudomonas aeruginosa
  MIC99: > 32 µg/mL
Staphylococcus aureus [7]
  MIC99: > 32 µg/mL
[8]
  solubility: 22 µM (≈ 12.2 µg/mL)
Staphylococcus aureus [9]
  MIC99: > 32 µg/mL
Staphylococcus aureus [10]
  MIC99: 32 µg/mL (≈ 57.8 µM)
